Experimental data reported in patent US9695155B2, “Herbicidal substituted pyrimidinyloxy benzene compounds” (E. I. DU PONT DE NEMOURS AND COMPANY, priority 2013, dated 2017).

Legend:
[1] = test system: pigweed; assay: Test A preemergence; assay type: in vivo, Amaranthus retroflexus; conditions: for Pigweed plant response rating (0 to 100 scale): 125 g ai/ha; for Pigweed plant response rating: 500 g ai/ha, 0 to 100 scale where 0 is no effect and 100 is complete control
Outline: (§1)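 Scoring: eye-based comparison with untreated controls, 0 for no effect through 100 for complete control, at about day 10. Treatments: directed soil spray preemergence; foliar spray postemergence on 2–10 cm plants at the one- to two-leaf stage. Medium: loam soil with sand.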

[2] = test system: pigweed; assay: Test C postemergence; assay type: in vivo, Amaranthus retroflexus; conditions: for Plant response rating (0 to 100), Pigweed: 16 g ai/ha, 0 is no effect, 100 is complete control; for Pigweed plant response rating: 31 g ai/ha; for Pigweed plant response rating / Plant response rating, Pigweed: scale 0 to 100 (0 no effect, 100 complete control)
Outline: (§2)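 Visual injury score versus untreated controls, 0 = no effect, 100 = complete control, taken 13 to 15 days after treatment in the greenhouse. Pre-emergence pots held loam/sand; post-emergence plants grew in sphagnum peat/vermiculite mix and were sprayed at the 1- to 4-leaf stage.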

[3] = test system: kochia; assay: Test C postemergence; assay type: in vivo, Kochia scoparia; conditions: for Plant response rating (0 to 100), Kochia: 16 g ai/ha, 0 is no effect, 100 is complete control; for Kochia plant response rating: 31 g ai/ha; for Kochia plant response rating / Plant response rating, Kochia: scale 0 to 100 (0 no effect, 100 complete control)
Outline: as §2

[4] = test system: velvetleaf; assay: Test C postemergence; assay type: in vivo, Abutilon theophrasti; conditions: for Plant response rating (0 to 100), Velvetleaf: 16 g ai/ha, 0 is no effect, 100 is complete control; for Velvetleaf plant response rating: 31 g ai/ha; for Velvetleaf plant response rating / Plant response rating, Velvetleaf: scale 0 to 100 (0 no effect, 100 complete control)
Outline: as §2

[5] = test system: blackgrass; assay: Test C postemergence; assay type: in vivo, Alopecurus myosuroides; conditions: for Plant response rating (0 to 100), Blackgrass: 16 g ai/ha, 0 is no effect, 100 is complete control; for Blackgrass plant response rating: 31 g ai/ha; for Blackgrass plant response rating / Plant response rating, Blackgrass: scale 0 to 100 (0 no effect, 100 complete control)
Outline: as §2

[6] = test system: wheat; assay: Test A postemergence; assay type: in vivo, Triticum aestivum; conditions: 0 to 100 scale where 0 is no effect and 100 is complete control; for Wheat plant response rating: 125 g ai/ha; for Plant response rating, Wheat: 500 g ai/ha
Outline: as §1

[7] = test system: morningglory; assay: Test A postemergence; assay type: in vivo, Ipomoea spp.; conditions: 0 to 100 scale where 0 is no effect and 100 is complete control; for Morningglory plant response rating: 125 g ai/ha; for Plant response rating, Morningglory: 500 g ai/ha
Outline: as §1

[8] = test system: barnyardgrass; assay: Test A preemergence; assay type: in vivo, Echinochloa crus-galli; conditions: for Barnyardgrass plant response rating (0 to 100 scale, 0 is no effect, 100 is complete control): 125 g ai/ha; for Barnyardgrass plant response rating: 500 g ai/ha, 0 to 100 scale where 0 is no effect and 100 is complete control
Outline: as §1

[9] = test system: Heteranthera limosa; assay: Test B flooded paddy test; assay type: in vivo; conditions: Flood, 250 g ai/ha; 0 to 100 scale where 0 is no effect and 100 is complete control
Outline: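 2-leaf stage plants; pots flooded to 3 cm, compound added to paddy water, depth maintained. Greenhouse 13–15 d. Visual rating vs untreated controls, 0 (no effect) to 100 (complete control); dash = no result.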

[10] = test system: barnyardgrass; assay: Test C postemergence; assay type: in vivo, Echinochloa crus-galli; conditions: for Plant response rating (0 to 100), Barnyardgrass: 16 g ai/ha, 0 is no effect, 100 is complete control; for Barnyardgrass plant response rating: 31 g ai/ha, 13 to 15 days; for Barnyardgrass plant response rating / Plant response rating, Barnyardgrass: scale 0 to 100 (0 no effect, 100 complete control)
Outline: as §2

[11] = test system: ragweed; assay: Test C postemergence; assay type: in vivo, Ambrosia elatior; conditions: for Plant response rating (0 to 100), Ragweed: 16 g ai/ha, 0 is no effect, 100 is complete control; for Ragweed plant response rating: 31 g ai/ha; for Ragweed plant response rating / Plant response rating, Ragweed: scale 0 to 100 (0 no effect, 100 complete control)
Outline: as §2

[12] = test system: wild oat; assay: Test C postemergence; assay type: in vivo, Avena fatua; conditions: for Plant response rating (0 to 100), Oat, Wild: 16 g ai/ha, 0 is no effect, 100 is complete control; for Oat, Wild plant response rating: 31 g ai/ha; for Oat, Wild plant response rating / Plant response rating, Oat, Wild: scale 0 to 100 (0 no effect, 100 complete control)
Outline: as §2

[13] = test system: morningglory; assay: Test C postemergence; assay type: in vivo, Ipomoea coccinea; conditions: for Plant response rating (0 to 100), Morningglory: 16 g ai/ha, 0 is no effect, 100 is complete control; for Morningglory plant response rating: 31 g ai/ha; for Morningglory plant response rating / Plant response rating, Morningglory: scale 0 to 100 (0 no effect, 100 complete control)
Outline: as §2

[14] = test system: velvetleaf; assay: Test A preemergence; assay type: in vivo, Abutilon theophrasti; conditions: for Velvetleaf plant response rating (0 to 100 scale): 125 g ai/ha; for Velvetleaf plant response rating: 500 g ai/ha, 0 to 100 scale where 0 is no effect and 100 is complete control
Outline: as §1

[15] = test system: morningglory; assay: Test A preemergence; assay type: in vivo, Ipomoea spp.; conditions: for Morningglory plant response rating (0 to 100 scale): 125 g ai/ha; for Morningglory plant response rating: 500 g ai/ha, 0 to 100 scale where 0 is no effect and 100 is complete control
Outline: as §1

[16] = postemergence, visual rating, 13 to 15 days
[17] = 125 g ai/ha, postemergence, visual rating
[18] = Postemergence, 62 g ai/ha, 13 to 15 days

FC(F)(F)c1cnn(-c2c(Br)cccc2Oc2ncc(Cl)cn2)c1 [Compound 191]
Pigweed plant response rating (0 to 100 scale) [1]: 100 | Pigweed plant response rating [1]: 100 | Plant response rating (0 to 100), Pigweed ([2]; postemergence): 95 | Pigweed plant response rating [2, 16]: 85 | Plant response rating, Pigweed [2, 17]: 98 | Plant response rating, Pigweed ([2]; Postemergence, 62 g ai/ha): 95 | Plant response rating (0 to 100), Kochia ([3]; postemergence): 85 | Kochia plant response rating [3, 16]: 95 | Plant response rating, Kochia [3, 17]: 100 | Plant response rating, Kochia ([3]; Postemergence, 62 g ai/ha): 98 | Plant response rating (0 to 100), Velvetleaf ([4]; postemergence): 50 | Velvetleaf plant response rating [4, 16]: 65 | Plant response rating, Velvetleaf [4, 17]: 65 | Plant response rating, Velvetleaf ([4]; Postemergence, 62 g ai/ha): 75 | Plant response rating (0 to 100), Blackgrass ([5]; postemergence): 0 | Blackgrass plant response rating [5, 16]: 0 | Plant response rating, Blackgrass [5, 17]: 10 | Plant response rating, Blackgrass ([5]; Postemergence, 62 g ai/ha): 5 | Wheat plant response rating [6]: 20 | Plant response rating, Wheat [6]: 40 | Morningglory plant response rating [7]: 80 | Plant response rating, Morningglory [7]: 100 | Barnyardgrass plant response rating (0 to 100 scale, 0 is no effect, 100 is complete control) [8]: 70 | Barnyardgrass plant response rating [8]: 100 | Plant response rating, Ducksalad [9]: 95 | Plant response rating (0 to 100), Barnyardgrass ([10]; postemergence): 10 | Barnyardgrass plant response rating ([10]; postemergence, visual rating): 10 | Plant response rating, Barnyardgrass [10, 17]: 15 | Plant response rating, Barnyardgrass ([10]; Postemergence, 62 g ai/ha): 15 | Plant response rating (0 to 100), Ragweed ([11]; postemergence): 5 | Ragweed plant response rating [11, 16]: 20 | Plant response rating, Ragweed [11, 17]: 35 | Plant response rating, Ragweed ([11]; Postemergence, 62 g ai/ha): 30 | Plant response rating (0 to 100), Oat, Wild ([12]; postemergence): 5 | Oat, Wild plant response rating [12, 16]: 5 | Plant response rating, Oat, Wild [12, 17]: 10 | Plant response rating, Oat, Wild ([12]; Postemergence, 62 g ai/ha): 5 | Plant response rating (0 to 100), Morningglory ([13]; postemergence): 40 | Morningglory plant response rating [13, 16]: 85 | Plant response rating, Morningglory [13, 17]: 50 | Plant response rating, Morningglory ([13]; Postemergence, 62 g ai/ha): 85 | Velvetleaf plant response rating (0 to 100 scale) [14]: 80 | Velvetleaf plant response rating [14]: 90 | Morningglory plant response rating (0 to 100 scale) [15]: 50 | Morningglory plant response rating [15]: 70

FC(F)c1cnn(-c2c(Cl)cccc2Oc2ncc(Cl)cn2)c1 [Compound 192]
Pigweed plant response rating (0 to 100 scale) [1]: 100 | Pigweed plant response rating [1]: 100 | Plant response rating (0 to 100), Pigweed ([2]; postemergence): 60 | Pigweed plant response rating [2, 16]: 65 | Plant response rating, Pigweed [2, 17]: 70 | Plant response rating, Pigweed [2, 18]: 80 | Plant response rating (0 to 100), Kochia ([3]; postemergence): 30 | Kochia plant response rating [3, 16]: 45 | Plant response rating, Kochia [3, 17]: 90 | Plant response rating, Kochia [3, 18]: 85 | Plant response rating (0 to 100), Velvetleaf ([4]; postemergence): 35 | Velvetleaf plant response rating [4, 16]: 60 | Plant response rating, Velvetleaf [4, 17]: 75 | Plant response rating, Velvetleaf [4, 18]: 65 | Plant response rating (0 to 100), Blackgrass ([5]; postemergence): 0 | Blackgrass plant response rating [5, 16]: 0 | Plant response rating, Blackgrass [5, 17]: 10 | Plant response rating, Blackgrass [5, 18]: 5 | Wheat plant response rating [6]: 0 | Plant response rating, Wheat [6]: 50 | Morningglory plant response rating [7]: 80 | Plant response rating, Morningglory [7]: 100 | Barnyardgrass plant response rating (0 to 100 scale, 0 is no effect, 100 is complete control) [8]: 60 | Barnyardgrass plant response rating [8]: 100 | Plant response rating, Ducksalad [9]: 90 | Plant response rating (0 to 100), Barnyardgrass ([10]; postemergence): 5 | Barnyardgrass plant response rating ([10]; postemergence, visual rating): 10 | Plant response rating, Barnyardgrass [10, 17]: 10 | Plant response rating, Barnyardgrass ([10]; Postemergence, 62 g ai/ha): 10 | Plant response rating (0 to 100), Ragweed ([11]; postemergence): 10 | Ragweed plant response rating [11, 16]: 25 | Plant response rating, Ragweed [11, 17]: 45 | Plant response rating, Ragweed [11, 18]: 15 | Plant response rating (0 to 100), Oat, Wild ([12]; postemergence): 0 | Oat, Wild plant response rating [12, 16]: 0 | Plant response rating, Oat, Wild [12, 17]: 5 | Plant response rating, Oat, Wild [12, 18]: 5 | Plant response rating (0 to 100), Morningglory ([13]; postemergence): 30 | Morningglory plant response rating [13, 16]: 50 | Plant response rating, Morningglory [13, 17]: 35 | Plant response rating, Morningglory [13, 18]: 35 | Velvetleaf plant response rating (0 to 100 scale) [14]: 90 | Velvetleaf plant response rating [14]: 100 | Morningglory plant response rating (0 to 100 scale) [15]: 30 | Morningglory plant response rating [15]: 100
